Columns and labels:
[1] = Electrochemical oxidation / cyclic voltammetry; format: physicochemical; settings: phosphate buffer pH 7.0, vs Ag/AgCl reference
Protocol: Compound 3a has a maximum in the UV-vis spectrum at 292 nm, and 4a has a maximum at 325 nm with a less intense peak at 525 nm (FIG. 2). […] This isosbestic point was also conserved in the photocatalytic and enzymatic (FIG. 2) oxidations of 3a described below, and the spectroscopic changes at 292 and 325 nm were routinely used for monitoring reaction progress.
All electrochemistry was performed using a CHI-620D potentiostat/galvanostat. Cyclic voltammetry was performed using a standard three-electrode configuration. CV scans were recorded for quiescent solutions using a platinum disk working electrode (2.0 mm diameter CH Instruments) and a platinum wire auxiliary electrode. All potentials were measured against a Ag/AgCl reference electrode (CH Instruments, 1 M KCl). CV and DPV experiments were performed in a nitrogen saturated 0.1 M potassium phosphate (KH2PO4) buffered solution at pH 7.0. The concentration of the analyte was 1.0 mM for all experiments.

[2] = Dihydrotetrazine oxidative stability (UV-vis); format: physicochemical
Description: A challenge to the development of catalytic methods for turning on the tetrazine ligation was the identification of a DHTz/Tz pair that would be stable in both oxidation states (FIG. 1, panel B). For most redox couples, either the DHTz is too readily oxidized in air (e.g., 1), or the Tz is too reactive toward water and other nucleophiles (e.g., 2). The inventors show here that the dipyridyl DHTz/Tz pair (3/4) has good stability in both states (FIG. 1, panel C). Dihydrotetrazines 3 are highly resistant toward background oxidation in organic solvents, and a number of derivatives have been synthesized and shown stable even to silica gel chromatography. […] Aqueous solutions of 3a were handled in glassware that had been first rinsed with 2.0 mM EDTA in PBS to remove adventitious metal impurities. After standing in the dark at 25° C. in PBS buffer, a solution of 3a was monitored by UV-vis and shown to retain 99 and 96% of the DHTz oxidation state over 30 min and 2.5 hours respectively. […] In PBS containing 10% mouse serum, 90% of 3a was retained in the DHTz oxidation state after 1 h. Analogs of tetrazines 4 have been described previously and used broadly for applications in nuclear medicine and cell imaging. […] The stability of a radiolabeled derivative of tetrazine 4b has been studied by Robillard at 37° C. in PBS, serum and blood, with 97%, 87% and 59% retention of the tetrazine observed after 2 hours.
A solution (3 mL) containing 3a (35 μM) in PBS buffer was prepared in a cuvette from stock solutions. Oxidation was monitored by recording solution absorbance at 0, 30 and 150 minutes. The cuvette was stored in the dark between measurements. Comparison of HRP, cytochrome C and hemoglobin: Solutions (1 mL) of 3a (30 μM) in PBS buffer were prepared in a cuvette from stock solutions. To the solutions, either hemoglobin ([…]) or cytochrome C (9 μM) were added and while oxidation was monitored every 30 seconds by measuring absorbance at 325 nm.

voltammogram peak (electrochemical oxidation) [1]: 0.02 V
retained DHTz oxidation state ([2]; 35 μM in MeOH, ambient light, 1 hour): 99%
retained DHTz oxidation state ([2]; 35 μM in MeOH, ambient light, 2 hours): 98%
retained DHTz oxidation state ([2]; PBS buffer, ambient light, 25° C., 1 hour): 97%
retained DHTz oxidation state ([2]; PBS buffer, ambient light, 25° C., 2 hours): 94%
retained DHTz oxidation state ([2]; PBS buffer, dark, 25° C., 30 min): 99%
retained DHTz oxidation state ([2]; PBS buffer, dark, 25° C., 2.5 hours): 96%
Structure (SMILES): O=C(O)CCC(=O)Nc1ccc(C2=NNC(c3ccccn3)=NN2)nc1 [3a, 4-oxo-4-((6-(6-(pyridin-2-yl)-1,4-dihydro-1,2,4,5-tetrazin-3-yl)pyridin-3-yl)amino)butanoic Acid]
